The values below come from patent US20260265252A1, “SOLID STATE FORMS OF IMIPRIDONE DERIVATIVE” (CHIMERIX, INC., priority 2024, published 2026).

Data set [1] in a line: Relative humidity (RH) experiments / exposure to moisture, solid form change. Type of data set: physicochemical. Particulars: for form change: exposure to moisture / relative humidity (RH) experiments. An excerpt: The three batches of Compound I (ONC206·2HCl) manufactured to date are described below. The first two processes consistently produced Form 1 (i.e., desolvated anhydrous form, Form 1).

The nature of data set [2]: Dynamic vapor sorption (DVS) water uptake. It is filed as physicochemical. Particulars: for total water uptake / water uptake: DVS; for hygroscopicity: characterised by DVS water uptake. An excerpt:
Dynamic Vapor Sorption (DVS)
Vapor sorption data were collected on a Surface Measurement System DVS Intrinsic instrument. Samples were not dried prior to analysis. Sorption and desorption data were collected over the stated range from at 10% RH increments under a nitrogen purge. The equilibrium criterion used […]

The nature of data set [3]: Solid form stability at ambient conditions. Type of data set: physicochemical.
The test system of data set [4] is diffuse midline glioma, H3 K27M-mutant (DMG H3K27M). Particulars: patients with diffuse midline glioma; cited from earlier work.

Where a name gives a salt, the structure may show the parent alone. A value given as a limit tells only on which side of the number the result lay.

For the compound `O=C1C2=C(CCN(Cc3ccccc3)C2)N2CCN=C2N1Cc1ccc(F)cc1F` [Compound I Form 1, 7-benzyl-4-(2,4-difluorobenzyl)-2,4,6,7,8,9-hexahydroimidazo[1,2-a]pyrido[3,4-e]pyrimidin-5(1H)-one], in data set [1], the form change entry was “tends to convert into Form 2”. Further, the hygroscopicity result in data set [1] (statement in Example 1) and in data set [2] was “hygroscopic” throughout. The total water uptake in data set [2] was 7.5%; in data set [2] (moles of water), ~ 2.2 moles. For the same compound, the results for the water uptake in data set [2] (relative humidity of 65% to 85%), in data set [2] (relative humidity of 85% to 95%) and in data set [2] (relative humidity of up to 65%) were 6.7%, 0.3% and 0.5%, respectively.
For the compound `O=C1C2=C(CCN(Cc3ccccc3)C2)N2CCN=C2N1Cc1ccc(F)cc1F` [Compound I Form A, 7-benzyl-4-(2,4-difluorobenzyl)-2,4,6,7,8,9-hexahydroimidazo[1,2-a]pyrido[3,4-e]pyrimidin-5(1H)-one], the total water uptake is 0.3% in data set [2] and less than 0.1 mol in data set [2] (moles of water). For the same compound, the hygroscopicity result in data set [2] is given as “non-hygroscopic”. For the same compound, the water uptake in data set [2] (relative humidity of up to 95%) turned out to be 0.3%.
As to `O=C1C2=C(CCN(Cc3ccccc3)C2)N2CCN=C2N1Cc1ccc(F)cc1F` [Compound I Material 14, 7-benzyl-4-(2,4-difluorobenzyl)-2,4,6,7,8,9-hexahydroimidazo[1,2-a]pyrido[3,4-e]pyrimidin-5(1H)-one], in data set [3], the “stability of the solid form” value is “metastable”.
Turning to `O=C1C2=C(CCN(Cc3ccccc3)C2)N2CCN=C2N1Cc1ccc(F)cc1F` [Compound I Tosylate Form A, 7-benzyl-4-(2,4-difluorobenzyl)-2,4,6,7,8,9-hexahydroimidazo[1,2-a]pyrido[3,4-e]pyrimidin-5(1H)-one], the results for the total water uptake in data set [2] and in data set [2] (moles of water) were 1.3% and 0.4 mol, respectively. Also, in data set [2], the hygroscopicity entry is “slightly hygroscopic”. The same compound yielded a water uptake in data set [2] (relative humidity of up to 96%) of 1.3%.
For `O=C1C2=C(CCN(Cc3ccccc3)C2)N2CCN=C2N1Cc1ccc(F)cc1F` [Compound I Fumarate Form A, 7-benzyl-4-(2,4-difluorobenzyl)-2,4,6,7,8,9-hexahydroimidazo[1,2-a]pyrido[3,4-e]pyrimidin-5(1H)-one], in data set [2], the total water uptake came to 0.7% and the hygroscopicity entry was “slightly hygroscopic”. In data set [2] (moles of water), this compound displayed a total water uptake of 0.1 mol. The compound further registered a water uptake in data set [2] (relative humidity of up to 95%) of 0.7%.
In the case of `O=C1C2=C(CCN(Cc3ccccc3)C2)N2CCN=C2N1Cc1ccc(F)cc1F` [Compound I Besylate Form A, 7-benzyl-4-(2,4-difluorobenzyl)-2,4,6,7,8,9-hexahydroimidazo[1,2-a]pyrido[3,4-e]pyrimidin-5(1H)-one], in data set [2], the total water uptake was found to be 0.3% and the hygroscopicity result is “non-hygroscopic”. This compound showed a total water uptake in data set [2] (moles of water) of less than 0.1 mol. Further, the water uptake in data set [2] (relative humidity of up to 95%) is recorded as 0.3%.
Turning to `Cc1ccccc1CN1C(=O)C2=C(CCN(Cc3ccccc3)C2)N2CCN=C12` [ONC201], the tumor regressions entry in data set [4] is recorded as “induced durable tumor regressions”.
In the case of `O=C1C2=C(CCN(Cc3ccccc3)C2)N2CCN=C2N1Cc1ccc(F)cc1F` [Compound I Sulfate Form A, 7-benzyl-4-(2,4-difluorobenzyl)-2,4,6,7,8,9-hexahydroimidazo[1,2-a]pyrido[3,4-e]pyrimidin-5(1H)-one], in data set [2], the total water uptake came to 2.5% and the hygroscopicity result was “slightly hygroscopic”. In data set [2] (moles of water), the total water uptake was 1.3 mol. Moreover, the water uptake in data set [2] (relative humidity of up to 96%) is reported as 2.5%.
For the compound `O=C1C2=C(CCN(Cc3ccccc3)C2)N2CCN=C2N1Cc1ccc(F)cc1F` [Compound I Form 2, 7-benzyl-4-(2,4-difluorobenzyl)-2,4,6,7,8,9-hexahydroimidazo[1,2-a]pyrido[3,4-e]pyrimidin-5(1H)-one], in data set [1], the form change result is given as “no form change was observed”. For the same compound, the figures for the total water uptake in data set [2] and in data set [2] (moles of water) were 2.5% and ~ 0.7 moles, respectively. Further, in data set [2], the hygroscopicity entry is listed as “hygroscopic”. In addition, the water uptake worked out at 1.8% in data set [2] (relative humidity of 5% to 25%) and 0.6% in data set [2] (relative humidity of 25% to 95%).
